{"source": "paper PMC6681348", "about": "(Biomolecules, 2019)", "molecules": {"B1": {"name": "ovomucoid inhibitor (chicken): chicken egg white trypsin inhibitor Type III-O, more than 200 amino acid residues, served as a contrast (protein, UniProt P01005 25-210, looked up)", "Ovomucoid": "AEVDCSRFPNATDKEGKDVLVCNKDLRPICGTDGVTYTNDCLLCAYSIEFGTNISKEHDGECKETVPMNCSSYANTTSEDGKVMVLCNRAFNPVCGTDGVTYDNECLLCAHKVEQGASVDKRHDGGCRKELAAVSVDCSEYPKPDCTAEDRPLCGSDNKTYGNKCNFCNAVVESNGTLTLSHFGKC"}}, "key": {"trypsin [1]": {"test_system": "trypsin", "test": "trypsin cleavage", "settings": "cited from earlier work"}, "chymotrypsin": {"biological_target": "chymotrypsin", "test": "Chymotrypsin inhibition assay", "type": "biochemical", "settings": "substrate Succinyl-Ala-Ala-Pro-Phe-NHMec, duplicates", "experimental": "(§1) The inhibitory activity of peptides towards trypsin and chymotrypsin was tested the same as detailed in Wang’s study. Peptides were initially prepared in a range of 10^−3–10^−6 M and then diluted to 16 concentrations. Each dilution was tested in duplicates. Additionally, Phe-Pro-Arg-AMC and Succinyl-Ala-Ala-Pro-Phe-NHMec (obtained from Bachem, UK) were served as substrates for trypsin and chymotrypsin, respectively."}, "trypsin [2]": {"test_system": "trypsin", "test": "Trypsin inhibition assay", "type": "biochemical", "settings": "substrate Phe-Pro-Arg-AMC; for trypsin inhibitory activity (in words): 16 concentrations, duplicates", "experimental": "as §1"}, "all tested microbes": {"test_system": "all tested microbes", "settings": "single loop synthesized alone; cited from earlier work", "excerpt": "The results just corresponded to the physicochemical properties of these two peptides."}, "horse red blood cells": {"test_system": "horse red blood cells", "settings": "horse red blood cells 4% v/v, 37 °C, 2 h, concentrations up to 512 µM; 1% Triton X-100 = 100% haemolysis", "experimental": "As described in the previous study, a suspension of horse red blood cells (4%, v/v) (TCS Biosciences, Botolph Claydon, Buckingham, UK) was incubated with peptides of the concentration range of 1 µM to 512 µM at 37 °C for 2 h to determine the peptide haemolytic activity. The positive control employed 1% TritonX-100 (Sigma, UK)."}, "[3]": {"test_system": "Candida albicans (NCPF 1467)", "settings": "MHB, broth dilution, 1-512 µM two-fold, 5 × 10^5 cfu/mL, seven replicates", "experimental": "(§2) Staphylococcus aureus (NCTC 10788), Escherichia coli (NCTC 10418), and Candida albicans (NCPF 1467) were applied in the antimicrobial test. They all were cultured in Mueller-Hinton Broth (MHB). […] Peptides were incubated with subcultured bacteria cells (5 × 10^5 cfu/mL) and each concentration was performed in seven replicates."}, "[4]": {"test_system": "Staphylococcus aureus (NCTC 10788)", "settings": "MHB, broth dilution, 1-512 µM two-fold, 5 × 10^5 cfu/mL, seven replicates", "experimental": "as §2"}, "[5]": {"test_system": "Escherichia coli (NCTC 10418)", "settings": "MHB, broth dilution, 1-512 µM two-fold, 5 × 10^5 cfu/mL, seven replicates", "experimental": "as §2"}, "trypsin [6]": {"biological_target": "trypsin", "settings": "read-out: Ki, trypsin inhibition; cited from earlier work", "excerpt": "Odorous frogs are distributed in East Asia and the surrounding areas, and they are named because of their smelly skin secretion, which plays a fundamental role in defensive systems. To date, hundreds of functional peptides have been isolated from Odorrana skin secretion, not only many potent antimicrobial peptides but also trypsin inhibitors. […] Combined with the data obtained from trypsin cleavage, each segment of both Kunitzin-OV and Kunitzin-RE was cleaved by trypsin via typical cleavage site Lys and Arg. […] Therefore, we assumed that the Lys close to the region of the protease-binding loop could act as a competitive position for trypsin activity ..."}, "trypsin [7]": {"test_system": "trypsin", "test": "trypsin cleavage assay", "settings": "up to 20 min"}}, "note": "Entries after “also recorded” stand apart in the source; their conditions may differ. Where two headings read alike, the source gives them in different places. Positions of bridges follow the written chain, without caps; N, C: chain ends. Residues, ends and D or L forms follow the SMILES beside them. No end group written: not given here."}
{"molecule": "AAKIILNPKFRCKAAFC", "values": [{"measurement": "not cleaved", "setting": "trypsin [1]", "value": "this did not happen to Kunitzin-RE"}]}
{"molecule": "CC(C)C[C@H](NC(=O)[C@H](C)N)C(=O)N[C@@H](CCCCN)C(=O)N[C@@H](Cc1ccc(O)cc1)C(=O)N1CCC[C@H]1C(=O)N[C@@H](Cc1ccccc1)C(=O)N[C@@H](CCCNC(=N)N)C(=O)N[C@H]1CSSC[C@@H](C(=O)O)NC(=O)[C@H](Cc2ccccc2)NC(=O)[C@H](C)NC(=O)[C@H](C)NC(=O)[C@H](Cc2ccccc2)NC1=O", "note": "[F^9-Kunitzin-OV] (H-ALKYPFRCFAAFC-OH; disulfide 8-13 (inferred); N-terminus and C-terminus assumed)", "values": [{"measurement": "Ki", "setting": "chymotrypsin; 16 concentrations from 10^-3-10^-6 M, Morrison plot, read-out: Ki, chymotrypsin inhibitory activity", "value": "11.8 ± 2.09", "unit": "µM"}, {"measurement": "chymotrypsin inhibitory activity (in words)", "setting": "chymotrypsin; 16 concentrations", "value": "optimized chymotrypsin inhibitory activity"}, {"measurement": "trypsin inhibitory activity (in words)", "setting": "trypsin [2]", "value": "undetected; also recorded: disappeared; also recorded: vanished"}, {"measurement": "trypsin inhibitory activity (in words)", "setting": "trypsin [2]; listed as site-substituted analogue", "value": "eliminated"}]}
{"molecule": "-CKAAFC- (disulfide) [single disulfide loop of kunitzins synthesized alone by Chen and colleagues]", "values": [{"measurement": "antimicrobial activity (in words)", "setting": "all tested microbes", "value": "no activity was observed"}]}
{"molecule": "CC(C)C[C@H](NC(=O)[C@H](C)N)C(=O)N[C@@H](CCCCN)C(=O)N[C@@H](Cc1ccc(O)cc1)C(=O)N1CCC[C@H]1C(=O)N[C@@H](Cc1ccccc1)C(=O)N[C@@H](CCCNC(=N)N)C(=O)N[C@H]1CSSC[C@@H](C(=O)O)NC(=O)[C@H](Cc2ccccc2)NC(=O)[C@H](C)NC(=O)[C@H](C)NC(=O)[C@H](CCCCN)NC1=O", "note": "[Kunitzin-OV] (H-ALKYPFRCKAAFC-OH; disulfide 8-13)", "values": [{"measurement": "haemolytic activity", "setting": "horse red blood cells", "value": "less than 10%"}, {"measurement": "Minimum Inhibitory Concentration C. albicans", "setting": "[3]", "value": 512, "unit": "µM"}, {"measurement": "Minimum Inhibitory Concentration S. aureus", "setting": "[4]", "value": 512, "unit": "µM"}, {"measurement": "Minimum Inhibitory Concentration E. coli", "setting": "[5]", "value": 512, "unit": "µM"}]}
{"molecule": "AVNIPFKVHFRCKAAFC (disulfide 12-17 (inferred)) [OGTI]", "values": [{"measurement": "Ki", "setting": "trypsin [6]", "value": 0.4, "unit": "µM"}]}
{"molecule": "ALKYPFRCKAAFC", "values": [{"measurement": "fragment found", "setting": "trypsin [7]", "value": "ALKYPFR, first_seen, 0 min"}]}
{"molecule": "B1", "values": [{"measurement": "trypsin inhibitory activity (in words)", "setting": "trypsin [2]", "value": "more potent inhibitory activity than Kunitzin-OV"}, {"measurement": "trypsin inhibitory activity (in words)", "setting": "trypsin [2]; listed as chicken egg white trypsin inhibitor Type III-O", "value": "faster and stronger inhibitory efficacy on trypsin than Kunitzin-OV"}, {"measurement": "Ki", "setting": "trypsin [2]; Morrison plot, contrast inhibitor", "value": "0.00349 ± 0.000505", "unit": "µM"}]}
